{"source": "patent US20240165064A1", "about": "“LONG-LASTING RESORBABLE SUBCUTANEOUS IMPLANT WITH PROLONGED RELEASE OF PRE-CONCENTRATED PHARMACOLOGICALLY ACTIVE SUBSTANCE IN POLYMER FOR THE TREATMENT OF HYPOTHYROIDISM, AND METHOD” (priority 2021, published 2024)", "origin": "cited, not measured here", "tested_on": "patients with primary hypothyroidism", "key": {"[1]": {"details": "T3 group compared to T4 group, 6 weeks"}}, "data": [{"smiles": "N[C@@H](Cc1cc(I)c(Oc2ccc(O)c(I)c2)c(I)c1)C(=O)O", "note": "[T3, triiodothyronine]", "values": [{"measurement": "weight lost on average more than the group receiving T4 treatment", "setting": "14 patients, three times a day for 6 weeks, T3 group compared to T4 group", "result": "1.8 ± 1.9", "unit": "kg"}, {"measurement": "decrease in low density cholesterol (non-HDL)", "setting": "[1]", "result": "13.3±12.1", "unit": "%"}, {"measurement": "decrease in total cholesterol", "setting": "[1]", "result": "10.9±10.0", "unit": "%"}, {"measurement": "reduction in apolipoprotein B", "setting": "[1]", "result": "18.3±28.6", "unit": "%"}, {"measurement": "side effects", "setting": "T3 treatment compared to T4 treatment, 6 weeks", "result": "without presenting significant side effects"}]}]}
